Test results as given in US20250345340A1, “METHODS FOR THE PREVENTION AND TREATEMENT OF POST-OPERATIVE ABDOMINAL ADHESIONS” (UNIVERSITY OF ROCHESTER, priority 2024, published 2025).
“Also recorded” adds a separate entry of the source.

Tests used:
[1] = test system: post-operative abdominal adhesions; test: Murine abdominal adhesion surgery model (cecum and abdominal wall abrasion, silk sutures, starch); assay type: in vivo, C57Bl/6J mice
Source text: Murine Abdominal Adhesion Surgery: Mature adult (16-20-week-old) C57Bl/6J male and female mice underwent abdominal surgery to induce adhesions consistent with those observed postoperatively in clinical settings. Briefly, following sedation, a vertical midline laparotomy incision, extending from the xyphoid process to just above the bladder (˜4 cm), is made through the abdominal skin and musculature. The cecum is identified and eviscerated, followed by gentle abrasion with sterile 100-grit sandpaper for 30-60 seconds. Hemostasis is ensured and the cecum is then returned to the abdominal cavity. The abdominal wall is then abraded with sterile 100-grit sandpaper, followed by placement of two-four 4-0 silk sutures, which are placed into the abdominal wall. The intestines are then irrigated with warmed sterile saline, and hemostasis is confirmed. A small pinch of sterile autoclaved rice starch is then sprinkled on the cecum and abdominal sidewall. The laparotomy is closed with absorbable, interrupted sutures used to reapproximate the fascia and followed by sutures to close the skin. The skin is closed with skin adhesive.
Scoring of gross adhesion formation: At time of harvest, digital photographic images will be taken of the abdominal cavity of each mouse, with images standardized to a lateral reflection of abdominal wall prior to manipulation of intra-abdominal contents. These images are then curated in a Research Electronic Data Capture (RedCap)-based survey for blinded scoring. Adhesions are scored from 0-5: with ‘0’ indicating no adhesions; 1: a single thin, filmy adhesion; 2: more than one filmy adhesion; 3: one thick adhesion with focal attachment (+thin filmy adhesions); 4: one thick adhesion with broad planar attachment (+thin filmy adhesions); and 5: >1 thick adhesion with broad planar attachment, or >1 thick vascular adhesion with planar attachment (+thin filmy adhesions). Images are scored by at least 5 surgeons trained on the scoring process, with the mean of these scores reported for each mouse.
Histological assessment of adhesions and ileal smooth muscle hypertrophy: Following digital image capture, the area of adhesion between the abdominal wall and bowel (or other organs), including any bowel: bowel adhesions is isolated, fixed in 10% neutral buffered formalin, and processed for paraffin histology. In cases of adhesion absence, the abdominal wall and cecum are harvested and sectioned separately. Five-micron transverse sections are cut through the tissue. To ensure accurate quantification of adhesions, tissue sections are collected through multiple depths through the tissue. […] Adhesion extent (length and cross-sectional area) along both the abdominal wall/cecal surface and between organs are quantified from H&E images by ≥2 blinded observers. […]
At harvest, the study took pictures of the peritoneal cavity, which were scored by 4 blinded, board certified surgeons adhesion scores ranged from 0 (none) to 5 (dense, vascular, adhesions).
The study chose the area of highest visible fibrosis and adhesion density. […] Adhesions were then measured in micrometers. Length of adhesions between the bowel to abdominal wall and bowel to bowel were measured. The total adhesion density (excluding abdominal wall fibrosis) was then measured by cross section. […]

lung fibroblasts = conditions: cited from earlier work

Nc1nc(NCc2ccccc2)nc(-c2ccccc2CO)n1 [ogerin]
length of adhesions between the bowel and abdominal wall and bowel to bowel ([1]; histology, POD10, vs control): reduction in length of adhesions
overall adhesion cross section (total adhesion burden by area) ([1]; histology, POD10, vs control): significantly lower; also recorded: reduces total adhesion burden
clinical adhesion score (0-5, blinded surgeons) ([1]; ogerin injected POD 0-5, harvest POD10, vs vehicle): reduces clinical adhesion score; also recorded: significantly lower
adhesion formation (gross) ([1]; ogerin injected POD 0-5, harvest POD10, vs vehicle DMSO:Saline 60:40): blunts adhesion formation; also recorded: substantial decrease in adhesion formation
mice demonstrating a complete lack of adhesion formation ([1]; ogerin injected POD 0-5, harvest POD10, all vehicle mice formed robust adhesions): 3 out of 4
TGF-b-induced myofibroblast differentiation (lung fibroblasts): blunts
reversion to a basal fibroblast phenotype following TGF-β-induced myofibroblast differentiation (lung fibroblasts): can promote reversion
